Patent US11517575B2, “Use of minaprine to reduce tumor growth” (Institut Gustave-Roussy, priority 2019, dated 2022)
Peptide text beside a SMILES is read from it. * marks the point of attachment. Cbz = O=C(OCc1ccccc1)*; CH2F = FC*

Tested on: HCT116 cells
Experiment: Cell death profiling by quantitative flow imaging of irradiated/non-irradiated co-cultures with death effector inhibitors
Assay type: cell-based, human
Details: 4 Gy, 24 h co-culture; for engulfment of neighboring cells by gamma-irradiated CMFDA+ cells (cell-in-cell structures): Y27632 30 μM; for PS exposure on outer plasma membrane of irradiated CMFDA+ cells: Rosco 10 μM
Protocol: FIG. 2 Detection of γ-irradiation-elicited cell autonomous death modalities by quantitative imaging flow-cytometry. (A-E) Detection and quantification of plasma membrane integrity loss and PS exposure observed after 24 hour co-culture of untreated (red/dark grey) CMTMR-labeled HCT116 cells and untreated (green/light grey) CMFDA-labeled HCT116 cells (A, C-E), of untreated (red/dark grey) CMTMR-labeled HCT116 cells and untreated (green/light grey) CMFDA-labeled HCT116 cells that have been extemporally mixed (C-E) or after 24 hour co-culture of untreated (red/dark grey) […] HCT116 cells with (green/light grey) CMFDA-labeled HCT116 cells (green) that have been irradiated with 4 grays of γ-ionizing radiation (B-E). The co-cultures have been performed in presence or absence of the indicated pharmacological death effector inhibitors. The detection of plasma membrane integrity (with DRAQ7) and PS exposure (with BV786-streptavidin/Annexin V biotin) have been analyzed for the untreated (red/dark grey) CMTMR^+ HCT116 cells, for untreated (green/light grey) CMFDA^+ HCT116 cells, for treated (green/light grey) CMFDA^+ HCT116 cells and for total cell population (CMTMR^+ or CMFDA^+ HCT116 cells). Representative dot plots (A,B) and quantitative data (C-E) are shown (means±SEM, n=3). (F,G) Representative cell cycle distributions of untreated (red/dark grey) CMTMR^+ HCT116 cells, untreated (green/light grey) CMFDA^+ HCT116 cells, treated (green/light grey) CMFDA^+ HCT116 cells and for total cell population (CMTMR^+ or CMFDA^+ HCT116 cells) obtained after 24 hour co-culture of untreated (red/dark grey) CMTMR-labeled HCT116 cells with untreated (green/light grey) CMFDA-labeled HCT116 cells (F, H-J), of untreated (red/dark grey) CMTMR-labeled HCT116 cells and untreated (green/light grey) CMFDA-labeled HCT116 cells that have been extemporally mixed (H-J) or after 24 hour co-culture of untreated (red/dark grey) CMTM-labeled HCT116 cells with (green/light grey) CMFDA-labeled HCT116 cells (green/light grey) that have been irradiated with 4 grays of γ-ionizing radiation (G-J) are shown. Quantitative data of cell cycle analysis are shown in (H-J) (means±SEM, n=3). * or # or $ represents p<0.05, ## or $$ p<0.01, *** or ###p<0.001.
FIG. 3 Detection of γ-irradiation-elicited non-cell autonomous death modalities by quantitative imaging flow-cytometry and confocal fluorescence microscopy. (A-G) Cell-in-cell structures and target cell degradation were determined by quantitative imaging (A-C) and confocal fluorescent microscopy (D-G) after 24 hour co-culture of untreated (red/dark grey) CMTM-labeled HCT116 cells with (green/light grey) CMFDA-labeled HCT116 cells that have been irradiated with 4 grays of γ-ionizing radiation (A), coculture of untreated (red/dark grey) CMTMR-labeled HCT116 cells with untreated (green/light grey) CMFDA-labeled HCT116 cells (B, C) or on CMTMR labeled (red/dark grey) HCT116 cells and untreated (green/light grey) CMFDA-labeled HCT116 cells that have been extemporally mixed (B, C). As previously described, cells have been sequentially labeled after co-cultures with specific fluorescent probes like BV786-streptavidin-Annexin V biotin, DRAQ7, and Hoechst 33342. Then, (red/dark grey) CMTMR-labeled HCT116 cells internalizing (green/light grey) CMFDA-labeled HCT116 cells (noted R(G)), and (green/light grey) CMFDA-labeled HCT116 cells internalizing (red/dark grey) CMTMR-labeled HCT116 cells (noted G(R)) were detected. Representative images are shown in (A) (scale, 20 μm). Frequencies of Cell-in-Cell structures (B) and target cell degradation (C) are reported (means±SEM, n=3). Representative confocal images of cell-in-cell structures (white arrow) (D) and target cell degradation (white dotted arrow) (E) detected during co-culture of untreated (red) CMTMR-labeled HCT116 cells with untreated or γ-irradiated (green) CMFDA-labeled cells are shown (scale bar=10 μm). […]

Compound | engulfment of neighboring cells by gamma-irradiated CMFDA+ cells (cell-in-cell structures) (ZVAD 100 μM) | PS exposure on outer plasma membrane of irradiated CMFDA+ cells (ZVAD 100 μM) | cellular degradation of engulfed CMTMR+ cells (ZVAD 100 μM, YVAD 100 μM) | frequency of dying cells (AnnexinV+DRAQ7- and DRAQ7+) (total, non-irradiated CMTMR+ and irradiated CMFDA+ cells, BafA1 50 nM)
C[C@@H](N)[C@H]1CC[C@H](C(=O)Nc2ccncc2)CC1 [Y27632] | repressed |  |  | 
COC(=O)CC(NC(=O)C(C)NC(=O)C(NC(=O)OCc1ccccc1)C(C)C)C(=O)CF (stereo not drawn) [Z-VAD-fmk, Benzyloxycarbonyl-Val-Ala-Asp(OMe)-fluoromethylketone] (Cbz-Val-Ala-Asp(OMe)-CH2F; configuration not given here) | not affected | inhibited the exposure of PS | significantly reduced | 
CO/C1=C\C(C)=C\[C@@H](C)[C@@H](O)[C@@H](C)C/C(C)=C/C=C/[C@H](OC)[C@@H]([C@@H](C)[C@@H](O)[C@H](C)[C@@]2(O)C[C@@H](O)[C@H](C)[C@@H](C(C)C)O2)OC1=O [bafilomycin A1, Bafilomycin A1] |  |  |  | increased the frequency of dying cells
CC[C@H](CO)Nc1nc(NCc2ccccc2)c2ncn(C(C)C)c2n1 [roscovitine, Roscovitine] |  | inhibited the exposure of PS |  | 
